Assay results reported in the NIST ThermoML archive (doi:10.1016/j.jct.2013.01.013).
Numbers after ± are expanded uncertainties.

Assay: xn = mol fraction of the nth substance listed
Conditions: 101 kPa, Liquid; for viscosity: Capillary tube (Ostwald / Ubbelohde) method; for speed of sound: Linear variable-path acoustic interferometer; for mass density: Pycnometric method

C=C(C)C(=O)OC [methyl methacrylate] + CC(=O)N(C)C
Conditions | mass density [kg/m3] | speed of sound [m/s] | viscosity [mPa·s]
288.15 K, x1 = 0.0714 | 946.01 ± 0.27 | 1484.2 ± 1.6 | 1.103 ± 0.0091
288.15 K, x1 = 0.144 | 946.49 ± 0.27 | 1468.6 ± 1.6 | 1.057 ± 0.0087
288.15 K, x1 = 0.2125 | 946.92 ± 0.27 | 1452.9 ± 1.6 | 1.016 ± 0.0084
288.15 K, x1 = 0.2823 | 947.31 ± 0.27 | 1435.8 ± 1.6 | 0.9751 ± 0.0081
288.15 K, x1 = 0.3568 | 947.69 ± 0.27 | 1416.2 ± 1.6 | 0.9339 ± 0.0078
288.15 K, x1 = 0.4318 | 948.02 ± 0.27 | 1394.9 ± 1.5 | 0.8939 ± 0.0075
288.15 K, x1 = 0.5046 | 948.31 ± 0.26 | 1372.8 ± 1.5 | 0.856 ± 0.0072
288.15 K, x1 = 0.5769 | 948.54 ± 0.26 | 1349.9 ± 1.5 | 0.8196 ± 0.007
288.15 K, x1 = 0.6512 | 948.73 ± 0.26 | 1325.5 ± 1.5 | 0.7835 ± 0.0067
288.15 K, x1 = 0.7205 | 948.88 ± 0.26 | 1302.7 ± 1.5 | 0.7513 ± 0.0064
288.15 K, x1 = 0.7845 | 948.97 ± 0.26 | 1282.2 ± 1.4 | 0.7228 ± 0.0062
288.15 K, x1 = 0.8558 | 949.03 ± 0.26 | 1259.7 ± 1.4 | 0.6927 ± 0.006
288.15 K, x1 = 0.9281 | 949.07 ± 0.26 | 1237.5 ± 1.4 | 0.6628 ± 0.0058
288.15 K, x1 = 1 | 949.1 ± 0.26 | 1216.8 ± 1.4 | 0.634 ± 0.0056
293.15 K, x1 = 0.0714 | 941.45 ± 0.26 | 1467.3 ± 1.6 | 0.9972 ± 0.0083
293.15 K, x1 = 0.144 | 941.87 ± 0.26 | 1452.1 ± 1.6 | 0.957 ± 0.008
293.15 K, x1 = 0.2125 | 942.23 ± 0.26 | 1436.6 ± 1.6 | 0.9207 ± 0.0077
293.15 K, x1 = 0.2823 | 942.55 ± 0.26 | 1419.2 ± 1.6 | 0.8852 ± 0.0075
293.15 K, x1 = 0.3568 | 942.84 ± 0.25 | 1399.5 ± 1.5 | 0.8487 ± 0.0072
293.15 K, x1 = 0.4318 | 943.08 ± 0.25 | 1378.3 ± 1.5 | 0.8137 ± 0.0069
293.15 K, x1 = 0.5046 | 943.28 ± 0.25 | 1356.3 ± 1.5 | 0.7808 ± 0.0067
293.15 K, x1 = 0.5769 | 943.43 ± 0.25 | 1333.1 ± 1.5 | 0.7494 ± 0.0064
293.15 K, x1 = 0.6512 | 943.52 ± 0.25 | 1308.9 ± 1.5 | 0.7183 ± 0.0062
293.15 K, x1 = 0.7205 | 943.58 ± 0.25 | 1286.3 ± 1.5 | 0.691 ± 0.006
293.15 K, x1 = 0.7845 | 943.59 ± 0.25 | 1266 ± 1.4 | 0.6666 ± 0.0058
293.15 K, x1 = 0.8558 | 943.54 ± 0.25 | 1243.5 ± 1.4 | 0.6409 ± 0.0056
293.15 K, x1 = 0.9281 | 943.46 ± 0.25 | 1221.3 ± 1.4 | 0.6153 ± 0.0054
293.15 K, x1 = 1 | 943.37 ± 0.25 | 1200.5 ± 1.4 | 0.5903 ± 0.0053
298.15 K, x1 = 0.0714 | 936.89 ± 0.27 | 1448.2 ± 1.6 | 0.9087 ± 0.0077
298.15 K, x1 = 0.144 | 937.25 ± 0.27 | 1433.9 ± 1.6 | 0.8736 ± 0.0074
298.15 K, x1 = 0.2125 | 937.54 ± 0.27 | 1418.5 ± 1.6 | 0.8414 ± 0.0072
298.15 K, x1 = 0.2823 | 937.79 ± 0.26 | 1400.8 ± 1.5 | 0.8102 ± 0.0069
298.15 K, x1 = 0.3568 | 937.99 ± 0.26 | 1381 ± 1.5 | 0.7782 ± 0.0067
298.15 K, x1 = 0.4318 | 938.14 ± 0.26 | 1359.8 ± 1.5 | 0.7473 ± 0.0064
298.15 K, x1 = 0.5046 | 938.25 ± 0.26 | 1338 ± 1.5 | 0.7186 ± 0.0062
298.15 K, x1 = 0.5769 | 938.31 ± 0.26 | 1315.4 ± 1.5 | 0.6915 ± 0.006
298.15 K, x1 = 0.6512 | 938.31 ± 0.26 | 1291.5 ± 1.5 | 0.665 ± 0.0058
298.15 K, x1 = 0.7205 | 938.28 ± 0.26 | 1269.3 ± 1.4 | 0.6416 ± 0.0056
298.15 K, x1 = 0.7845 | 938.21 ± 0.26 | 1248.9 ± 1.4 | 0.6207 ± 0.0055
298.15 K, x1 = 0.8558 | 938.05 ± 0.26 | 1226.9 ± 1.4 | 0.5983 ± 0.0053
298.15 K, x1 = 0.9281 | 937.85 ± 0.26 | 1204.6 ± 1.4 | 0.5763 ± 0.0052
298.15 K, x1 = 1 | 937.63 ± 0.25 | 1183.6 ± 1.4 | 0.5544 ± 0.005
303.15 K, x1 = 0.0714 | 932.33 ± 0.28 | 1429.5 ± 1.6 | 0.8475 ± 0.0072
303.15 K, x1 = 0.144 | 932.63 ± 0.28 | 1415.5 ± 1.6 | 0.8152 ± 0.007
303.15 K, x1 = 0.2125 | 932.85 ± 0.28 | 1400.7 ± 1.6 | 0.7858 ± 0.0067
303.15 K, x1 = 0.2823 | 933.03 ± 0.27 | 1383.5 ± 1.5 | 0.7573 ± 0.0065
303.15 K, x1 = 0.3568 | 933.14 ± 0.27 | 1363.9 ± 1.5 | 0.7278 ± 0.0063
303.15 K, x1 = 0.4318 | 933.2 ± 0.27 | 1342.9 ± 1.5 | 0.6995 ± 0.0061
303.15 K, x1 = 0.5046 | 933.22 ± 0.27 | 1321.2 ± 1.5 | 0.6733 ± 0.0059
303.15 K, x1 = 0.5769 | 933.19 ± 0.27 | 1298.9 ± 1.5 | 0.649 ± 0.0057
303.15 K, x1 = 0.6512 | 933.1 ± 0.27 | 1275.4 ± 1.4 | 0.6253 ± 0.0055
303.15 K, x1 = 0.7205 | 932.98 ± 0.27 | 1253.7 ± 1.4 | 0.6042 ± 0.0054
303.15 K, x1 = 0.7845 | 932.82 ± 0.27 | 1233.8 ± 1.4 | 0.5853 ± 0.0052
303.15 K, x1 = 0.8558 | 932.56 ± 0.27 | 1211.8 ± 1.4 | 0.565 ± 0.0051
303.15 K, x1 = 0.9281 | 932.24 ± 0.27 | 1189.9 ± 1.4 | 0.545 ± 0.0049
303.15 K, x1 = 1 | 931.89 ± 0.26 | 1168.5 ± 1.4 | 0.5251 ± 0.0048
308.15 K, x1 = 0.0714 | 927.77 ± 0.29 | 1409.8 ± 1.6 | 0.789 ± 0.0068
308.15 K, x1 = 0.144 | 928.01 ± 0.29 | 1396.4 ± 1.6 | 0.7601 ± 0.0066
308.15 K, x1 = 0.2125 | 928.16 ± 0.29 | 1382.1 ± 1.5 | 0.7332 ± 0.0064
308.15 K, x1 = 0.2823 | 928.26 ± 0.28 | 1365.2 ± 1.5 | 0.7071 ± 0.0062
308.15 K, x1 = 0.3568 | 928.29 ± 0.28 | 1345.7 ± 1.5 | 0.68 ± 0.006
308.15 K, x1 = 0.4318 | 928.26 ± 0.28 | 1324.8 ± 1.5 | 0.654 ± 0.0058
308.15 K, x1 = 0.5046 | 928.19 ± 0.28 | 1303.4 ± 1.5 | 0.6305 ± 0.0056
308.15 K, x1 = 0.5769 | 928.07 ± 0.28 | 1281.5 ± 1.5 | 0.6082 ± 0.0054
308.15 K, x1 = 0.6512 | 927.89 ± 0.28 | 1258.5 ± 1.4 | 0.5867 ± 0.0053
308.15 K, x1 = 0.7205 | 927.68 ± 0.28 | 1237.5 ± 1.4 | 0.5678 ± 0.0051
308.15 K, x1 = 0.7845 | 927.43 ± 0.28 | 1217.7 ± 1.4 | 0.5507 ± 0.005
308.15 K, x1 = 0.8558 | 927.07 ± 0.28 | 1196.1 ± 1.4 | 0.5325 ± 0.0048
308.15 K, x1 = 0.9281 | 926.63 ± 0.27 | 1174.2 ± 1.4 | 0.514 ± 0.0047
308.15 K, x1 = 1 | 926.15 ± 0.27 | 1152.6 ± 1.3 | 0.496 ± 0.0046
313.15 K, x1 = 0.0714 | 923.21 ± 0.3 | 1392.2 ± 1.5 | 0.743 ± 0.0064
313.15 K, x1 = 0.144 | 923.38 ± 0.3 | 1379.6 ± 1.5 | 0.7165 ± 0.0062
313.15 K, x1 = 0.2125 | 923.46 ± 0.29 | 1365.5 ± 1.5 | 0.6916 ± 0.0061
313.15 K, x1 = 0.2823 | 923.49 ± 0.29 | 1348.6 ± 1.5 | 0.6671 ± 0.0059
313.15 K, x1 = 0.3568 | 923.44 ± 0.29 | 1328.3 ± 1.5 | 0.6422 ± 0.0057
313.15 K, x1 = 0.4318 | 923.32 ± 0.29 | 1306.9 ± 1.5 | 0.6183 ± 0.0055
313.15 K, x1 = 0.5046 | 923.16 ± 0.29 | 1285.6 ± 1.5 | 0.5963 ± 0.0053
313.15 K, x1 = 0.5769 | 922.95 ± 0.29 | 1263.9 ± 1.4 | 0.5759 ± 0.0052
313.15 K, x1 = 0.6512 | 922.68 ± 0.29 | 1241.1 ± 1.4 | 0.5562 ± 0.005
313.15 K, x1 = 0.7205 | 922.38 ± 0.29 | 1220.1 ± 1.4 | 0.5387 ± 0.0049
313.15 K, x1 = 0.7845 | 922.04 ± 0.29 | 1200.9 ± 1.4 | 0.523 ± 0.0048
313.15 K, x1 = 0.8558 | 921.57 ± 0.29 | 1179 ± 1.4 | 0.506 ± 0.0047
313.15 K, x1 = 0.9281 | 921.01 ± 0.28 | 1157.2 ± 1.4 | 0.4891 ± 0.0045
313.15 K, x1 = 1 | 920.41 ± 0.28 | 1135.4 ± 1.3 | 0.4723 ± 0.0044
318.15 K, x1 = 0.0714 | 918.65 ± 0.31 | 1374.5 ± 1.5 | 0.7095 ± 0.0062
318.15 K, x1 = 0.144 | 918.75 ± 0.31 | 1362.8 ± 1.5 | 0.6842 ± 0.006
318.15 K, x1 = 0.2125 | 918.76 ± 0.3 | 1348.2 ± 1.5 | 0.6607 ± 0.0058
318.15 K, x1 = 0.2823 | 918.72 ± 0.3 | 1330.9 ± 1.5 | 0.6374 ± 0.0057
318.15 K, x1 = 0.3568 | 918.59 ± 0.3 | 1310.1 ± 1.5 | 0.6135 ± 0.0055
318.15 K, x1 = 0.4318 | 918.38 ± 0.3 | 1288.6 ± 1.5 | 0.5905 ± 0.0053
318.15 K, x1 = 0.5046 | 918.13 ± 0.3 | 1267.2 ± 1.4 | 0.5693 ± 0.0051
318.15 K, x1 = 0.5769 | 917.83 ± 0.3 | 1245.9 ± 1.4 | 0.5497 ± 0.005
318.15 K, x1 = 0.6512 | 917.47 ± 0.3 | 1223.7 ± 1.4 | 0.5307 ± 0.0048
318.15 K, x1 = 0.7205 | 917.08 ± 0.3 | 1202.8 ± 1.4 | 0.5141 ± 0.0047
318.15 K, x1 = 0.7845 | 916.65 ± 0.3 | 1184 ± 1.4 | 0.4991 ± 0.0046
318.15 K, x1 = 0.8558 | 916.07 ± 0.29 | 1162.4 ± 1.4 | 0.4828 ± 0.0045
318.15 K, x1 = 0.9281 | 915.39 ± 0.29 | 1140.2 ± 1.3 | 0.4662 ± 0.0044
318.15 K, x1 = 1 | 914.66 ± 0.29 | 1118.3 ± 1.3 | 0.4499 ± 0.0042
